Here are results for 4 compounds from ChEMBL document CHEMBL1201862, “PubChem BioAssay data set” (2004).

Among the test systems are 786-0; A498; DU-145; HCC 2998; Hs-578T; KM12; LOX IMVI; MCF7; NCI-H522; SK-MEL-28; SK-OV-3; SNB-19; SNB-75; T47D; TK-10; UACC-257; CAKI-1; Malme-3M; OVCAR-3.
Holding throughout (assay): DTP human tumour cell line panel, 48 h

Each structure is given as a SMILES string.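 Results reflect a 48-hour exposure of cells in 96-well plates to compound at five concentrations. GI50 = concentration required for 50% inhibition of growth.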 The source made the active and inactive calls. Cut-off read from the data, not from the text of the source: active = GI50 up to about 1.1 µM and inactive = higher.

Regarding `Nc1cc(OCc2ccccc2)c(OCc2ccccc2)cc1C=O`, the GI50 in the experiment with 786-0 was 17.5 µM (inactive); with A498, 11.6 µM (inactive); with DU-145 it was 31.6 µM (inactive); in the experiment with HCC 2998, 8.57 µM (inactive); in the experiment on Hs-578T it was 42.4 µM (inactive); with KM12, 23.3 µM (inactive). The GI50 with LOX IMVI was 26.2 µM (inactive); in the experiment on MCF7, 36.7 µM (inactive); in the experiment with NCI-H522, 0.141 µM (active); in the experiment with SK-MEL-28, 42.1 µM (inactive); in the experiment with SK-OV-3, 52.5 µM (inactive); in the experiment with SNB-19, 32.9 µM (inactive). Moreover, the GI50 with SNB-75 is 52.8 µM (inactive); with T47D, 21.1 µM (inactive); with TK-10 it was 15.3 µM (inactive); with UACC-257 it was 85.9 µM (inactive).

As to `CCCCCCCCCCC(O)C1CCC(C(O)CCC(O)C2CCC(CCCCCCC[C@H](O)CC3=C[C@@H](C)OC3=O)O2)O1` (stereo partly drawn), the GI50 in the experiment with 786-0 was 17.3 µM (inactive); in the experiment with A498 it was 22.2 µM (inactive); with CAKI-1, > 70.8 µM (inactive); in the experiment on DU-145, > 10 µM (inactive); in the experiment with HCC 2998, 97.5 µM (inactive); in the experiment on Hs-578T it was > 10 µM (inactive). In addition, the GI50 was 6.1 µM (inactive) in the experiment with KM12; 14.6 µM (inactive) in the experiment on LOX IMVI; 2 µM (inactive) in the experiment on MCF7; 29.6 µM (inactive) in the experiment with Malme-3M; 1.34 µM (inactive) in the experiment with NCI-H522; 18.3 µM (inactive) in the experiment with OVCAR-3. The GI50 is > 51.9 µM (inactive) with SK-MEL-28; 30.3 µM (inactive) in the experiment on SK-OV-3; 3.66 µM (inactive) with SNB-19; 6.9 µM (inactive) with SNB-75; > 10 µM (inactive) in the experiment on T47D; 30.3 µM (inactive) in the experiment on TK-10. In addition, the 50% growth inhibitory concentration (GI50) in the experiment with UACC-257 is < 0.0169 µM (active).

Turning to `COC(=O)NC(Nc1ccc(C)cc1)(C(F)(F)F)C(F)(F)F`, the GI50 in the experiment on 786-0, in the experiment on A498, in the experiment on CAKI-1, in the experiment with DU-145, with HCC 2998 and with Hs-578T was > 100 µM (inactive) in each case. For the same compound, the GI50 in the experiment with KM12, in the experiment on LOX IMVI, in the experiment on MCF7, with Malme-3M, in the experiment on NCI-H522 and with OVCAR-3 was > 100 µM (inactive) throughout. Besides, the GI50 in the experiment on SK-MEL-28, with SK-OV-3, with SNB-19, in the experiment with SNB-75, with T47D and in the experiment on TK-10 was > 100 µM (inactive) throughout. Further, the GI50 in the experiment with UACC-257 is > 100 µM (inactive).

For `NC(=O)c1nnn(-c2ccccc2)c1O`, the GI50 with 786-0, in the experiment on A498, with CAKI-1, in the experiment on DU-145, in the experiment with HCC 2998 and in the experiment with Hs-578T was > 100 µM (inactive) each time. Besides, the GI50 in the experiment with KM12, in the experiment on LOX IMVI, with MCF7, with Malme-3M, with NCI-H522 and in the experiment with OVCAR-3 was > 100 µM (inactive) throughout. The GI50 in the experiment with SK-MEL-28, with SK-OV-3, in the experiment with SNB-19, in the experiment with SNB-75, with T47D and in the experiment on TK-10 was > 100 µM (inactive) each time. Also, the GI50 with UACC-257 is > 100 µM (inactive).

The GI50 is the concentration at which growth is held to half of that of the control.
